In this test the target is 5'-nucleotidase (Homo sapiens, UniProt P21589). The experiment in a line: Inhibition of recombinant human CD73 preincubated for 15 mins followed by AMP addition measured after 10 mins by LC/MS analysis.
Sequence of 5'-nucleotidase (P21589 whole entry): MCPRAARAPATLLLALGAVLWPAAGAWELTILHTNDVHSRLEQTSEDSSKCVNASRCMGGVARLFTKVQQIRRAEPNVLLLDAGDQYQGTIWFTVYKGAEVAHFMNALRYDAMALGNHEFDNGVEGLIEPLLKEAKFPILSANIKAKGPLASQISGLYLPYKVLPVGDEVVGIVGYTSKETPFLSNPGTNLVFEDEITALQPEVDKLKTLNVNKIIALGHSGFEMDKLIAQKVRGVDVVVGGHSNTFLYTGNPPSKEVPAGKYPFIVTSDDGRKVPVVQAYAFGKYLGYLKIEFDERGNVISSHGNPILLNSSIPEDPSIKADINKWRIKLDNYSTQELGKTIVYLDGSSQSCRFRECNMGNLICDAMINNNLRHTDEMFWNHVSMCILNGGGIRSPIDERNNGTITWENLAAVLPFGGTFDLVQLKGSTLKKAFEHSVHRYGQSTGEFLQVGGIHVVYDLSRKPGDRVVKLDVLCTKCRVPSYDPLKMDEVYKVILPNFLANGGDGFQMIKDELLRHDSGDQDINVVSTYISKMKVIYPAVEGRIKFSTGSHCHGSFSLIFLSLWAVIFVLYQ
One may read the IC50 as the point on the concentration scale where inhibition reaches its midpoint. Turning to `Cn1nc(O[C@H](c2ccnc(OCC(C)(F)F)c2)C(F)F)c2cc(-c3n[nH]c(=O)[nH]c3=O)nnc21`, the IC50 was found to be 0.04 nM.

Regarding `C[C@H](Nc1cc([C@@H](Oc2nn(C)c3nnc(-c4n[nH]c(=O)[nH]c4=O)cc23)C(F)F)ccn1)C(F)(F)F`, the concentration for half-maximal inhibition (IC50) was found to be 0.04 nM.

On to `C[C@@H](Nc1cc([C@@H](Oc2nn(C)c3nnc(-c4n[nH]c(=O)[nH]c4=O)cc23)C(F)F)ccn1)C(F)(F)F`, for which the half-inhibitory concentration (IC50) came out at 0.04 nM.

Consider `COCCOc1cc([C@@H](Oc2nn(C)c3nnc(-c4n[nH]c(=O)[nH]c4=O)cc23)C(F)F)ccn1`, for which the IC50 is 0.05 nM.

Values taken from ChEMBL document CHEMBL6121027, “Novel Bicyclic Heterocyclic Compounds as CD73 Inhibitors for Treating Cancer” (ACS Med Chem Lett, 2025).
